What all share (type): cell-based, human
Experiment [1] concerns H929 cells. Briefly: Live cell interferometry (LCI) growth of H929 cells with or without bortezomib. As to conditions: for growth trajectory compared to the control: 96 well plate. As to the method:
A typical assay may include, for a single plate, forming groups of seven wells. A range of concentrations may be used, with each concentration (e.g., a DMSO control, varying therapeutic concentrations of 0.039 nM, 0.156 nM, 0.625 nM, 2.5 nM, 10 nM, and 40 nM) applied to a group of wells. In some embodiments, cells are plated, therapeutic(s) are added, and images are collected every 10-15 minutes for the designated period of time.
For development of screening techniques, H929 cells may be used. H929 cells, which may be grown in serum free conditions, have the morphologic, ultrastructural, biochemical, immunologic, and cytochemical features of plasma cells (see, Gazdar et al., Blood (1986) 67(6): 1542-9). H929 cells, derived from a human patient with multiple myeloma, are commonly used for multiple myeloma testing and are sensitive to a variety of chemotherapeutic drugs.
In this experiment, about 1681 control cells and about 1272 bortezomib treated cells were screened.
A small but statistically significant difference in growth rate was detected at about 4.5 hrs. […] As shown in this graph, the growth trajectories of the control and bortezomib treated cells begin to diverge between 4-5 hours. […] Here, a vertical line indicates a statistically significant point of divergence using LCI techniques between 4-5 hours.
In this experiment, about 1889 control cells and about 1248 bortezomib treated cells were screened. Imaging was initiated after drug addition, every 12 min for 7 hrs. In this study, the normalized growth rate [1/h] of DMSO control cells was 0.0152, while the normalized growth rate [1/h] of 10 nM bortezomib treated cells was 0.0139, for a difference of −8.6% between these two growth rates. As shown by the graph, after about 5 hours, the normalized growth rate of control and 10 nM bortezomib treated cells diverged. Accordingly, under these conditions, efficacy of a drug was determined in about 5 hours.
For this graph, the same plate (as used in FIG. 21C) was imaged (for a total of 24 hours) after drug addition. An image was taken every 12 minutes for about 15 hours. About 1867 control cells and about 1426 bortezomib treated cells were screened.
FIGS. 22A-22D show another study using bortezomib. […] A clear response to the therapeutic was observed, with the drug EC50 expected to be between 2.5-10 nM.

The subject of experiment [2] is MM.1R and MM.1S cells. Briefly: Multiple myeloma combinatorial screening of therapeutics by LCI, 96 well plate. As to conditions: for overall result: response / overall result: titration effect: 3 concentrations per drug, quadruplicate, 96 well plate; for ranking among screened drugs: bortezomib 20 nM and carfilzomib at 50 nM. As to the method:
In this example, 6 therapeutics at 3 different concentrations, were added in quadruplicate to a 96 well plate. Thus, there were 19 different conditions: bortezomib (20, 5, 1.25 nM); carlifomib (50, 10, 2 nM); dexamethasone (300, 100, 33.3 nM); lenalidomide (50, 10, 2 nM); panobinostat (50, 10, 2 nM); pomalidomide (50, 10, 2 nM); and DMSO (300 nM) as a negative control. In clinical practice, the actual drugs/combinations may be provided by the clinician.
In this study, a large number of cells (12,000 total cells) were screened to identify optimal drugs and concentrations. This assay, while performed on MM.1R and MM.1S cells may be performed on any suitable cell type (e.g., patient derived cancer cells from multiple myeloma, breast cancer, lung cancer, etc.). For multiple myeloma cells, a protocol for CD138+ cell enrichment from patient bone marrow is provided in the art.
FIGS. 25B, 25C, and 25D show the results of this assay, in graphical, dot box, and table format respectively, in which multiple “best treatments” were identified using this system.

Experiment [3] relates to MM.1S cells. Briefly: LCI growth of MM.1S cells treated with bortezomib or dexamethasone. The source says: As an alternative, MM.1 cells may be used as model cell line for assay development, wherein MM.1S refers to a strain that is sensitive to a drug such as dexamethasone and MM.1R refers to a strain that is resistant to a drug such as dexamethasone. For these types of experiments, a 12 well plate may be seeded at about 1.5××10^5 cells per plate. The desired concentration of therapeutic(s) may be added to each of the six wells. Control wells may also be established using the same dilutions with DMSO as the test well containing drug. LCI imaging may begin immediately after drug addition, with images being taken every 10-15 minutes.
About 2.5××10^5 cells per well were placed on a poly-D-lysine 12 well plate, and incubated for one hour. About 200 nM dexamethasone, 10 nM bortezomib, or DMSO (in duplicate wells) were added to each well, and images were collected every 15 mins for up to 15 hours.

In general, EC50 refers to the concentration needed to bring the measured effect to its halfway point. Turning to `CC(C)C[C@H](NC(=O)[C@H](Cc1ccccc1)NC(=O)c1cnccn1)B(O)O` [bortezomib], the “difference between growth rates of treated and DMSO control cells” value in experiment [1] (2 nM bortezomib) is on record as −6.55%; in experiment [1] (10 nM bortezomib, first 7 hrs), −8.6%; in experiment [1] (10 nM bortezomib, later imaging about 15 hours (total 24 hours)), −119.6%. The “normalized growth rate” value is 0.0172 h⁻¹ in experiment [1] (2 nM bortezomib, imaged about 15 hours); 0.0139 h⁻¹ in experiment [1] (10 nM bortezomib, imaged every 12 min for 7 hrs after drug addition); 0.000443 h⁻¹ in experiment [1] (10 nM bortezomib, same plate imaged further about 15 hours (total of 24 hours after drug addition)). Moreover, the entries for the “growth trajectory compared to the control” value in experiment [1] (2.5 nM) and in experiment [1] (10 nM) were “did not show a difference in growth trajectory” and “significant decline in growth”, respectively. Besides, the EC50 was in the range of 2.5 to 10 nM in experiment [1] (Homo sapiens, NCI-H929, 96 well plate, 0-40 nM titration, expected value) and 2.5 to 10 nM in experiment [3] (Homo sapiens, MM1.S cells, bortezomib titration). In experiment [2], the “overall result: response” value is listed as “good/great response”. Also, the “overall result: titration effect” value in experiment [2] was “good titration effect”. Further, in experiment [2], the “ranking among screened drugs” value is recorded as “most effective drugs”. In addition, in experiment [3] (MM.1S, 10 nM bortezomib), the “sensitivity of cells to drug” value was “sensitive”.

As to `CC(C)C[C@H](NC(=O)[C@H](CCc1ccccc1)NC(=O)CN1CCOCC1)C(=O)N[C@@H](Cc1ccccc1)C(=O)N[C@@H](CC(C)C)C(=O)[C@@]1(C)CO1` [carfilzomib], in experiment [2], the “overall result: response” value is “good/great response”, the “overall result: titration effect” value is “good titration effect” and the “ranking among screened drugs” value is “most effective drugs”.

For `C[C@@H]1C[C@H]2[C@@H]3CCC4=CC(=O)C=C[C@]4(C)[C@@]3(F)[C@@H](O)C[C@]2(C)[C@@]1(O)C(=O)CO` [dexamethasone], the “reduction of MM.1S growth” value in experiment [3] (about 200 nM dexamethasone, imaged up to 15 hours) was 80.5%.

Consider `Nc1cccc2c1CN(C1CCC(=O)NC1=O)C2=O` (stereo not shown) [lenalidomide], for which, in experiment [2], the “overall result: response” value is listed as “no response” and the “overall result: titration effect” value is listed as “no titration effect”.

For the molecule `Nc1cccc2c1C(=O)N(C1CCC(=O)NC1=O)C2=O` (stereo not shown) [pomalidomide], in experiment [2], the “overall result: response” value is listed as “some response” and the “overall result: titration effect” value is on record as “good titration effect”.

Values taken from patent publication US12019067B2, “Interferometry based systems to detect small mass changes of an object in a solution” (NantBio, Inc., priority 2020, dated 2024).
